Earlier results on 2 molecules are cited in patent US10576041B2, “Extended relief dosage form” (The Procter & Gamble Company, priority 2016, dated 2020).

For the data set the following is noted: immediate release; in the human body.

Where a name gives a salt, the structure may show the parent alone.

One may read the half-life as the time in which the quantity being followed falls by half. `COc1ccc2c(c1)[C@]13CCCC[C@@H]1[C@H](C2)N(C)CC3` [dextromethorphan hydrobromide]: the half-life was 3 to 5 h.

For `CN[C@@H](C)[C@@H](O)c1ccccc1` [pseudoephedrine hydrochloride], the half-life is 4.3 to 8 h.
